Reference: US4582639A, “Antitumor antibiotic compound” (priority 1984, dated 1986)
Values after ≈ are worked out from the molar mass of the structure shown. Bridge positions count the residues as written; N and C are the ends. Square brackets hold non-standard residues; d marks the D form. Peptide text beside a SMILES is read from it. I, II: the chains in the order shown. * marks the point of attachment. Quinaldoyl(3-OH) = O=C(c1nc2ccccc2cc1O)*; NMeV = CN[CH](C(=O)O)C(C)C; Pip = O=C(O)[CH]1CCCCN1; Sar = CNCC(=O)O

How the values were obtained:
[1] = system: B. subtilis (Rec. +) A22508-2; assay: serial two-fold agar dilution, MIC; type: cell-based; settings: Bacillus subtilis; B. subtilis (Rec. +) A22508-2, agar dilution; read-out: Minimum Inhibitory Concentration (MIC)
Procedure: (§1) The antibacterial activities of sandramycin were determined by a serial two-fold agar dilution method. The results are shown in Table 5 in comparison with the activities of luzopeptin A and echinomycin.

[2] = system: B. subtilis (Rec. -) A22509-2-2; assay: serial two-fold agar dilution, MIC; type: cell-based; settings: Bacillus subtilis; B. subtilis (Rec. -) A22509-2-2, agar dilution; read-out: Minimum Inhibitory Concentration (MIC)
Procedure: as §1

[3] = system: E. coli (actinomycin sensitive) A21780 (AS-19); assay: serial two-fold agar dilution, MIC; type: cell-based; settings: Escherichia coli, read-out: Minimum Inhibitory Concentration (MIC)
Procedure: as §1

E. coli A15119 = assay: serial two-fold agar dilution, MIC; type: cell-based; settings: Escherichia coli, read-out: Minimum Inhibitory Concentration (MIC)
Procedure: as §1

[4] = system: S. aureus (echinomycin resistant) A9628; assay: microbe, parasite or virus in culture; type: cell-based; settings: Staphylococcus aureus, read-out: Minimum Inhibitory Concentration (MIC)
Procedure: The antibacterial activities of sandramycin were determined by a serial two-fold agar dilution method.

Strep. faecalis A9611 = assay: serial two-fold agar dilution, MIC; type: cell-based, Streptococcus faecalis; settings: Enterococcus faecalis, read-out: Minimum Inhibitory Concentration (MIC)
Procedure: as §1

[5] = system: gram-positive organisms such as Bacillus subtilis and Staphylococcus aureus as well as Streptococcus faecalis; assay: serial two-fold agar dilution, antibacterial activity in words; type: cell-based
Procedure: as §1

P-388 leukemia = assay: transplantable mouse tumor P-388 leukemia; type: in vivo, mouse (CDF1 female mice)
Procedure: The methodology used generally followed the protocols of the National Cancer Institute [Cancer Chemotherapy Rep. Part 3, 3, 1-103 (1972)]. The essential experimental details are given at the bottom of Table 6. Two different dose regimens were tested: single dose on day 1 and daily for 5 days. With both schedules, the optimum dose appears to be about 0.2 mg/kg/injection.
Tumor inoculum: 10^6 ascites cells implanted i.p.
Evaluation: MST=median survival time
Effect: % T/C≥(MST treated/MST control)×100
Criteria: % T/C=125 considered significant antitumor activity
AWC: average weight change (treated-control) in grams (on day 4)

CS[C@H]1SC[C@H]2C(=O)N(C)[C@@H](C(C)C)C(=O)OC[C@@H](NC(=O)c3cnc4ccccc4n3)C(=O)N[C@@H](C)C(=O)N(C)[C@@H]1C(=O)N(C)[C@@H](C(C)C)C(=O)OC[C@@H](NC(=O)c1cnc3ccccc3n1)C(=O)N[C@@H](C)C(=O)N2C [Echinomycin]
MIC [1]: 0.049 µg/mL (≈ 0.0445 µM) | MIC [2]: < 0.003 µg/mL | MIC [3]: 6.25 µg/mL (≈ 5.68 µM) | MIC (E. coli A15119): 12.5 µg/mL (≈ 11.4 µM) | MIC [4]: 0.78 µg/mL (≈ 0.708 µM) | MIC (Strep. faecalis A9611): 0.012 µg/mL (≈ 0.0109 µM)

COc1ccc2nc(C(=O)N[C@@H]3COC(=O)[C@H](C(C)(C)O)N(C)C(=O)CN(C)C(=O)CNC(=O)C4C(OC(C)=O)CC=NN4C(=O)[C@H](NC(=O)c4nc5ccc(OC)cc5cc4O)COC(=O)[C@H](C(C)(C)O)N(C)C(=O)CN(C)C(=O)CNC(=O)C4C(OC(C)=O)CC=NN4C3=O)c(O)cc2c1 (some centres unmarked) [Luzopeptin A]
MIC [1]: 0.195 µg/mL (≈ 0.137 µM) | MIC [2]: 0.049 µg/mL (≈ 0.0343 µM) | MIC [3]: 12.5 µg/mL (≈ 8.76 µM) | MIC (E. coli A15119): 12.5 µg/mL (≈ 8.76 µM) | MIC [4]: 0.098 µg/mL (≈ 0.0687 µM) | MIC (Strep. faecalis A9611): 0.195 µg/mL (≈ 0.137 µM)

CC(C)C1C(=O)OCC(NC(=O)c2nc3ccccc3cc2O)C(=O)N2CCCCC2C(=O)NCC(=O)N(C)CC(=O)N(C)C(C(C)C)C(=O)OCC(NC(=O)c2nc3ccccc3cc2O)C(=O)N2CCCCC2C(=O)NCC(=O)N(C)CC(=O)N1C (centres unmarked) [Sandramycin] (I: {Quinaldoyl(3-OH)}-S[Pip]G[Sar][NMeV] / II: {Quinaldoyl(3-OH)}-S[Pip]G[Sar][NMeV]; ester I:1-II:C, I:C-II:1; configuration not given here)
MIC [1]: 0.024 µg/mL (≈ 0.0197 µM) | MIC [2]: 0.012 µg/mL (≈ 0.00983 µM) | MIC [3]: 12.5 µg/mL (≈ 10.2 µM) | MIC (E. coli A15119): 12.5 µg/mL (≈ 10.2 µM) | MIC [4]: 0.098 µg/mL (≈ 0.0802 µM) | MIC (Strep. faecalis A9611): 0.024 µg/mL (≈ 0.0197 µM) | antibacterial activity [5]: strongly inhibitory | optimum dose (P-388 leukemia; IP, both schedules (single dose on day 1 and daily for 5 days)): about 0.2 mg/kg/injection | AWC Day 4 (P-388 leukemia; d. 1, IP, 0.025 mg/kg/inj.): -0.2 gm | MST (P-388 leukemia; d. 1, IP, 0.025 mg/kg/inj.): 9.5 days | MST % T/C (P-388 leukemia; d. 1, IP, 0.025 mg/kg/inj.): 106% | Survivors Day 5 (P-388 leukemia; d. 1, IP, 0.025 mg/kg/inj.): 6/6 | AWC Day 4 (P-388 leukemia; d. 1, IP, 0.05 mg/kg/inj.): -0.6 gm | MST (P-388 leukemia; d. 1, IP, 0.05 mg/kg/inj.): 10.0 days | MST % T/C (P-388 leukemia; d. 1, IP, 0.05 mg/kg/inj.): 111% | Survivors Day 5 (P-388 leukemia; d. 1, IP, 0.05 mg/kg/inj.): 6/6 | AWC Day 4 (P-388 leukemia; d. 1, IP, 0.1 mg/kg/inj.): -0.9 gm | MST (P-388 leukemia; d. 1, IP, 0.1 mg/kg/inj.): 11.0 days | MST % T/C (P-388 leukemia; d. 1, IP, 0.1 mg/kg/inj.): 122% | Survivors Day 5 (P-388 leukemia; d. 1, IP, 0.1 mg/kg/inj.): 6/6 | AWC Day 4 (P-388 leukemia; d. 1, IP, 0.2 mg/kg/inj.): -1.4 gm | MST (P-388 leukemia; d. 1, IP, 0.2 mg/kg/inj.): 14.5 days | MST % T/C (P-388 leukemia; d. 1, IP, 0.2 mg/kg/inj.): 161% | Survivors Day 5 (P-388 leukemia; d. 1, IP, 0.2 mg/kg/inj.): 6/6 | AWC Day 4 (P-388 leukemia; d. 1, IP, 0.4 mg/kg/inj.): -0.7 gm | MST (P-388 leukemia; d. 1, IP, 0.4 mg/kg/inj.): 11.0 days | MST % T/C (P-388 leukemia; d. 1, IP, 0.4 mg/kg/inj.): 122% | Survivors Day 5 (P-388 leukemia; d. 1, IP, 0.4 mg/kg/inj.): 6/6 | AWC Day 4 (P-388 leukemia; d. 1, IP, 0.8 mg/kg/inj.): -1.6 gm | MST (P-388 leukemia; d. 1, IP, 0.8 mg/kg/inj.): 10.0 days | MST % T/C (P-388 leukemia; d. 1, IP, 0.8 mg/kg/inj.): 111% | Survivors Day 5 (P-388 leukemia; d. 1, IP, 0.8 mg/kg/inj.): 6/6 | AWC Day 4 (P-388 leukemia; d. 1, IP, 1.6 mg/kg/inj.): -1.3 gm | MST (P-388 leukemia; d. 1, IP, 1.6 mg/kg/inj.): 11.5 days | MST % T/C (P-388 leukemia; d. 1, IP, 1.6 mg/kg/inj.): 128% | Survivors Day 5 (P-388 leukemia; d. 1, IP, 1.6 mg/kg/inj.): 6/6 | AWC Day 4 (P-388 leukemia; d. 1, IP, 3.2 mg/kg/inj.): -2.8 gm | MST (P-388 leukemia; d. 1, IP, 3.2 mg/kg/inj.): Toxic | MST % T/C (P-388 leukemia; d. 1, IP, 3.2 mg/kg/inj.): Toxic | Survivors Day 5 (P-388 leukemia; d. 1, IP, 3.2 mg/kg/inj.): 0/6 | AWC Day 4 (P-388 leukemia; d. 1→5, IP, 0.0125 mg/kg/inj.): -0.9 gm | MST (P-388 leukemia; d. 1→5, IP, 0.0125 mg/kg/inj.): 10.5 days | MST % T/C (P-388 leukemia; d. 1→5, IP, 0.0125 mg/kg/inj.): 117% | AWC Day 4 (P-388 leukemia; d. 1→5, IP, 0.025 mg/kg/inj.): -1.4 gm | MST (P-388 leukemia; d. 1→5, IP, 0.025 mg/kg/inj.): 10.0 days | MST % T/C (P-388 leukemia; d. 1→5, IP, 0.025 mg/kg/inj.): 111% | Survivors Day 5 (P-388 leukemia; d. 1→5, IP, 0.025 mg/kg/inj.): 5/5 | AWC Day 4 (P-388 leukemia; d. 1→5, IP, 0.05 mg/kg/inj.): -1.8 gm | MST (P-388 leukemia; d. 1→5, IP, 0.05 mg/kg/inj.): 8.5 days | MST % T/C (P-388 leukemia; d. 1→5, IP, 0.05 mg/kg/inj.): 94% | Survivors Day 5 (P-388 leukemia; d. 1→5, IP, 0.05 mg/kg/inj.): 6/6 | AWC Day 4 (P-388 leukemia; d. 1→5, IP, 0.1 mg/kg/inj.): -0.8 gm | MST (P-388 leukemia; d. 1→5, IP, 0.1 mg/kg/inj.): 11.5 days | MST % T/C (P-388 leukemia; d. 1→5, IP, 0.1 mg/kg/inj.): 128% | Survivors Day 5 (P-388 leukemia; d. 1→5, IP, 0.1 mg/kg/inj.): 6/6 | AWC Day 4 (P-388 leukemia; d. 1→5, IP, 0.2 mg/kg/inj.): -1.7 gm | MST (P-388 leukemia; d. 1→5, IP, 0.2 mg/kg/inj.): 12.0 days | MST % T/C (P-388 leukemia; d. 1→5, IP, 0.2 mg/kg/inj.): 133% | Survivors Day 5 (P-388 leukemia; d. 1→5, IP, 0.2 mg/kg/inj.): 5/6 | AWC Day 4 (P-388 leukemia; d. 1→5, IP, 0.4 mg/kg/inj.): -1.3 gm | MST (P-388 leukemia; d. 1→5, IP, 0.4 mg/kg/inj.): 11.0 days | MST % T/C (P-388 leukemia; d. 1→5, IP, 0.4 mg/kg/inj.): 122% | Survivors Day 5 (P-388 leukemia; d. 1→5, IP, 0.4 mg/kg/inj.): 6/6 | AWC Day 4 (P-388 leukemia; d. 1→5, IP, 0.8 mg/kg/inj.): -1.4 gm | MST (P-388 leukemia; d. 1→5, IP, 0.8 mg/kg/inj.): 6.0 days | MST % T/C (P-388 leukemia; d. 1→5, IP, 0.8 mg/kg/inj.): 67% | Survivors Day 5 (P-388 leukemia; d. 1→5, IP, 0.8 mg/kg/inj.): 5/6 | AWC Day 4 (P-388 leukemia; d. 1→5, IP, 1.6 mg/kg/inj.): -1.7 gm | MST (P-388 leukemia; d. 1→5, IP, 1.6 mg/kg/inj.): Toxic | MST % T/C (P-388 leukemia; d. 1→5, IP, 1.6 mg/kg/inj.): Toxic | Survivors Day 5 (P-388 leukemia; d. 1→5, IP, 1.6 mg/kg/inj.): 2/6
